Experimental findings from patent EP1144011B1, “PRODRUG COMPOUNDS AND PROCESS FOR PREPARATION THEREOF” (Coulter Pharmaceutical, Inc., priority 1998, dated 2000) are described below.

The nature of data set [1]: Acute toxicity after intravenous injection in mice. The format is in vivo. The following applies: iv bolus of 250 mg/kg (Dox-HCl eq.), three to five mice per group.
In data set [2] the test system is adriamycin-resistant colorectal carcinoma CXF280/10. Put plainly: Nude mouse xenograft model, CXF280/10. The settings on record: CXF280/10 xenograft. The format is in vivo.
Data set [3] relates to LS-174T human colorectal carcinoma. As to the kind of experiment: Nude mouse xenograft model, LS-174T.
Data set [4] in a line: Supporting toxicity studies. The settings on record: doses of up to 106.8 mg/kg.
Data set [5] has as its system MCF 7/6 (breast carcinoma) cell homogenate. As to the kind of experiment: Compound screen: cleavage by MCF 7/6 cell homogenate, HPLC. The format is biochemical. The protocol:
Based on HPLC analysis of digestion products, activation of peptidyl-toxin to free toxin occurs via a series of enzyme catalyzed cleavage reactions. […] Initial endopeptidase cleavage occurs between the AA^3 (P1) and AA^2(P1') amino acids to yield alanyl-leucyl-doxorubicin.
(§1) Test samples were incubated at 37°C for 2 hr with the three different preparations of carcinoma enzyme and with whole blood, extracted with acetonitrile, and analyzed by HPLC using fluorescence detection. With few exceptions, results for carcinoma enzyme cleavage were the same for a partially purified fraction from HeLa cells, MFC 7/6 cell homogenate, or MCF 7/6 conditioned media.
MCF 7/6 cells were grown to confluence in a serum free medium containing DMEM:F12 (1:1), 50 mg/L bovine serum albumin, ITS-X, and Lipid Concentrate. 100 mL of cells were harvested by centrifugation at 4°C 10,000xg, for 20 min and decanting the supernatant. The pellet was resuspended in 2 mL phosphate buffered saline (Gibco) and centrifuged at 18,000xg for 10 min. […]
(§2) For HPLC analysis 50 µL of sample was injected on a 4.6 x 50 mm 2µ TSK Super-ODS chromatography column at 40°C and eluted with a 3 minute linear gradient from 26% to 68% acetonitrile in aqueous 20 mM ammonium acetate pH 4.5 buffer at 2 mL/min. Detection was by fluorescence using an excitation wavelength of 235 nm and an emission wavelength of 560 nm. […]

Data set [6] concerns estrogen-dependent MCF-7/6 mammary tumor. As to the kind of experiment: Nude mouse xenograft model, MCF-7/6. The following applies: MCF-7/6 xenograft. The format is in vivo.
Data set [7] relates to MCF 7/6 (breast carcinoma) conditioned media. As to the kind of experiment: Compound screen: cleavage by MCF 7/6 conditioned media, HPLC. The format is biochemical. The following applies: 2 hr at 37°C. On the procedure: as §1
MCF 7/6 cells were grown to confluence in DMEM/F12 (1:1) medium containing 10 % fetal bovine serum, 0.05% (w/v) L-glutamine, 250 IU/mL penicillin, and 100 µg/mL streptomycin. Cells were then washed twice with phosphate buffered saline and incubated 24 hr at 5% CO2, 37°C, in DMEM/F12 (1:1), 0.02% BSA, ITS-X. The conditioned media was then decanted and, using a stirred cell apparatus with a YM10 (10.000 MW cutoff) ultrafiltration membrane(Millipore), exchanged once with 10 mM HEPES buffer, pH 7.2 and concentrated twenty-fold. This solution was stored in aliquots at-20°C for use in the compound screen. […]
as §2

Another data set deals with trouase. Put plainly: Compound screen: cleavage by HeLa cell anion exchange fraction pool (partially purified trouase), HPLC. The following applies: 2 hr at 37°C. The format is biochemical, human. The protocol:
as §1
Thirty billion commercially produced HeLa Cells (human cervical carcinoma, Computer Cell Culture Center, Seneffe, Belgium) were homogenized with a sonicator and with a Dounce homogenizer in 108 mL of aqueous lysis solution. […]
A portion of the ultracentrifugation supernatant was diluted 2-fold with a 20 mM triethanolamine-HCl pH 7.2 buffer containing 0.01% (w/v) Triton X-100 and 0.02% (w/v) sodium azide (equilibration buffer). […] Its transformation into L-alanyl-L-leucyl-doxorubicin was quantified by reverse phase high performance liquid chromatography utilizing fluorescence detection of the anthracycline moiety. […]
as §2

The mark [8] stands for this setting: subcutaneous LS174T tumors, five weekly intravenous doses of 57, 64 and 71 mg/kg, versus vehicle-treated controls.

As to `COc1cccc2c1C(=O)c1c(O)c3c(c(O)c1C2=O)CC(O)(C(=O)CO)CC3OC1CC(NC(=O)C(CC(C)C)NC(=O)C(C)NC(=O)C(CC(C)C)NC(=O)CCNC(=O)CCC(=O)O)C(O)C(C)O1` (stereo not drawn) [succinyl-β-Ala-Leu-Ala-Leu-Dox], in data set [1], the survival result is “all animals survived up to 8 days”. Besides, the “inhibiting the growth of human tumors” value in data set [2], in data set [3] (LS-174T xenograft) and in data set [6] was “efficacious” throughout. Moreover, in data set [3] (LS-174T xenograft model), the “toxicity at efficacious doses” value was “without significant toxicity”. For the same molecule, the “efficacy in inhibiting LS-174T tumor compared to doxorubicin at 3.0 mg/kg and saline” value in data set [3] (doses of 49, 57 and 64 mg/kg) is “superior efficacy”. For the same molecule, the body weight entry in data set [3] (repeat dosing, LS174T model) is “Some dose-dependent body weight loss”. Further, in data set [3] (repeat-dose levels and frequencies that demonstrated anti-tumor efficacy), the safety and tolerability result was “safe and well-tolerated”. The “Mean Day of Survival (MDS)” value in data set [3] (setting [8]) is “significant, dose-dependent, replicable extension”. Further, the tumor volume result in data set [3] (setting [8]) is recorded as “decreased size of the tumor”. Further, the “kidney toxicity and myelosuppression” value in data set [4] is “not observed”. In addition, the “activation of peptidyl-toxin (digestion products by HPLC)” value in data set [5] (extracts of carcinoma cells or carcinoma cell conditioned media, two steps, at least two enzymes) is “converted to leucyl-doxorubicin”.

For the molecule `COc1cccc2c1C(=O)c1c(O)c3c(c(O)c1C2=O)C[C@@](O)(C(C)=O)C[C@@H]3O[C@H]1C[C@H](NC(=O)[C@H](CC(C)C)NC(=O)[C@H](C)NC(=O)[C@H](CC(C)C)NC(=O)[C@H](C)NC(=O)CCC(=O)O)[C@H](O)[C@H](C)O1` [P2 L-alanine compound], the “extent of cleavage by conditioned medium versus the P2 β-alanine compound” value in data set [7] is reported as “about the same”. For the same molecule, in data set [5] (2 hr at 37°C), the “extent (rate) of cleavage by cell homogenate versus the P2 β-alanine compound” value is listed as 1.3 fold. Further, in the data set on trouase, the “extent of cleavage with the partially purified trouase preparation versus the P2 β-alanine compound” value was 0.6 fold.
